Key:
Assay in all cases: KINOMEscan
Type in all cases: binding
ANKK1 = molecular target: T1, ANKK1 (Homo sapiens, UniProt Q8NFD2); settings: 35 at 1 µM; read-out: % inhibition
T1 construct: purchased Eurofins DiscoverX (KINOMEscan)
Description: (§1) KinomeScan Assay on 35 was performed as previously described at EuroFins DiscoverX (Fremont, CA, USA).

ERBB4 = molecular target: T2, ERBB4 (Homo sapiens, UniProt Q15303); settings: 35 at 1 µM; read-out: % inhibition
T2 construct: purchased Eurofins DiscoverX (KINOMEscan)
Description: as §1

TAK1 = molecular target: T3, TAK1 (Homo sapiens, UniProt O43318); settings: 35 at 1 µM; read-out: % inhibition
T3 construct: purchased Eurofins DiscoverX (KINOMEscan)
Description: as §1

PCTK3 = molecular target: T4, PCTK3 (Homo sapiens, UniProt Q07002); settings: 35 at 1 µM; read-out: % inhibition
T4 construct: purchased Eurofins DiscoverX (KINOMEscan)
Description: as §1

NDR2 = molecular target: T5, NDR2 (Homo sapiens, UniProt Q9Y2H1); settings: 35 at 1 µM; read-out: % inhibition
T5 construct: purchased Eurofins DiscoverX (KINOMEscan)
T5 sequence (Q9Y2H1 whole entry): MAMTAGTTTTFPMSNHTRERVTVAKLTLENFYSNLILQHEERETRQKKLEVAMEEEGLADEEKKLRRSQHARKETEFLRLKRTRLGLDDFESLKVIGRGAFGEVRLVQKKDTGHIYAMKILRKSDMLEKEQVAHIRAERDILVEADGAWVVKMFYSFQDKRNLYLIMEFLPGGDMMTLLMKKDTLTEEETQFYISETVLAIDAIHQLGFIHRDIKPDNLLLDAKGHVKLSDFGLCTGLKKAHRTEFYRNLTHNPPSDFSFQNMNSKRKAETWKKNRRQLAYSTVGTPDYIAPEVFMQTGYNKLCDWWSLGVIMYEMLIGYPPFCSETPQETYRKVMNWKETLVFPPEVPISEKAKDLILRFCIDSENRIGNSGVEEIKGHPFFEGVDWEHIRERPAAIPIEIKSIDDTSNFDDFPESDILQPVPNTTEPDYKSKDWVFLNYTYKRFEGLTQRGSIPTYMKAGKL
Description: as §1

PKAC-beta = molecular target: T6, PKAC-beta (Homo sapiens, UniProt P22694); settings: 35 at 1 µM; read-out: % inhibition
T6 construct: purchased Eurofins DiscoverX (KINOMEscan)
Description: as §1

PRKCQ = molecular target: T7, PRKCQ (Homo sapiens, UniProt Q04759); settings: 35 at 1 µM; read-out: % inhibition
T7 construct: purchased Eurofins DiscoverX (KINOMEscan)
Description: as §1

PFTAIRE2 = molecular target: T8, PFTAIRE2 (Homo sapiens, UniProt Q96Q40); settings: 35 at 1 µM; read-out: % inhibition
T8 construct: purchased Eurofins DiscoverX (KINOMEscan)
Description: as §1

EPHA7 = molecular target: T9, EPHA7 (Homo sapiens, UniProt Q15375); settings: 35 at 1 µM; read-out: % inhibition
T9 construct: purchased Eurofins DiscoverX (KINOMEscan)
Description: as §1

MST3 = molecular target: T10, MST3 (Homo sapiens, UniProt Q9Y6E0); settings: 35 at 1 µM; read-out: % inhibition
T10 construct: purchased Eurofins DiscoverX (KINOMEscan)
Description: as §1

MEK6 = molecular target: T11, MEK6 (Homo sapiens, UniProt P52564); settings: 35 at 1 µM; read-out: % inhibition
T11 construct: purchased Eurofins DiscoverX (KINOMEscan)
Description: as §1

ALK(C1156Y) = molecular target: T12, ALK(C1156Y) (Homo sapiens, UniProt Q9UM73, C1156Y); settings: 35 at 1 µM; read-out: % inhibition
T12 construct: purchased Eurofins DiscoverX (KINOMEscan)
Description: as §1

PIK3CD = molecular target: T13, PIK3CD (Homo sapiens, UniProt O00329); settings: 35 at 1 µM; read-out: % inhibition
T13 construct: purchased Eurofins DiscoverX (KINOMEscan)
Description: as §1

FLT3-autoinhibited = molecular target: T14, FLT3-autoinhibited (Homo sapiens, UniProt P36888); settings: 35 at 1 µM; read-out: % inhibition
T14 construct: purchased Eurofins DiscoverX (KINOMEscan)
Description: as §1

TRPM6 = molecular target: T15, TRPM6 (Homo sapiens, UniProt Q9BX84); settings: 35 at 1 µM; read-out: % inhibition
T15 construct: purchased Eurofins DiscoverX (KINOMEscan)
Description: as §1

TLK2 = molecular target: T16, TLK2 (Homo sapiens, UniProt Q86UE8); settings: 35 at 1 µM; read-out: % inhibition
T16 construct: purchased Eurofins DiscoverX (KINOMEscan)
T16 sequence (Q86UE8 whole entry): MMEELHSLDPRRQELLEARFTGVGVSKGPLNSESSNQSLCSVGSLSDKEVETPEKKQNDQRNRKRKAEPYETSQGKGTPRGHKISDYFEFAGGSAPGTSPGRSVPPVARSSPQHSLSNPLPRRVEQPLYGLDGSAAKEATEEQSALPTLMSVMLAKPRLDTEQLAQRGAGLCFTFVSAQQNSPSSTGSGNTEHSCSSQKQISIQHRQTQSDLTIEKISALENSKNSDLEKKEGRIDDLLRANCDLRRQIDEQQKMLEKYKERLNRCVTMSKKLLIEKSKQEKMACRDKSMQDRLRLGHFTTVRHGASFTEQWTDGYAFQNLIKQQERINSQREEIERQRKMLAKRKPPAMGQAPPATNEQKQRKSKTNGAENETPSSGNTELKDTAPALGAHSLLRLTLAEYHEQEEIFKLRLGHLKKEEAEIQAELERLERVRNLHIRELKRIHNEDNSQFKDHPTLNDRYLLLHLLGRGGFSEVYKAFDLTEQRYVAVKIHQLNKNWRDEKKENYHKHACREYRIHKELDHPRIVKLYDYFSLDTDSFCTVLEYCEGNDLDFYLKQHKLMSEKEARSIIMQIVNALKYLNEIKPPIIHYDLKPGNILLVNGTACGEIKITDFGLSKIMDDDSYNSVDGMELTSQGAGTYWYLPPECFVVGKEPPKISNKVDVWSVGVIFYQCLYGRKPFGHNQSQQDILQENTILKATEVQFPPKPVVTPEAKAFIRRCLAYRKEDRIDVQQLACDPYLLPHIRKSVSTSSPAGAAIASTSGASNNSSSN
Description: as §1

HPK1 = molecular target: T17, HPK1 (Homo sapiens, UniProt Q92918); settings: 35 at 1 µM; read-out: % inhibition
T17 construct: purchased Eurofins DiscoverX (KINOMEscan)
Description: as §1

DDR2 = molecular target: T18, DDR2 (Homo sapiens, UniProt Q16832); settings: 35 at 1 µM; read-out: % inhibition
T18 construct: purchased Eurofins DiscoverX (KINOMEscan)
Description: as §1

YANK1 = molecular target: T19, YANK1 (Homo sapiens, UniProt Q8WU08); settings: 35 at 1 µM; read-out: % inhibition
T19 construct: purchased EuroFins DiscoverX (Fremont, CA, USA)
Description: as §1

SNRK = molecular target: T20, SNRK (Homo sapiens, UniProt Q9NRH2); settings: 35 at 1 µM; read-out: % inhibition
T20 construct: purchased Eurofins DiscoverX (KINOMEscan)
Description: as §1

EPHA6 = molecular target: T21, EPHA6 (Homo sapiens, UniProt Q9UF33); settings: 35 at 1 µM; read-out: % inhibition
T21 construct: purchased Eurofins DiscoverX (KINOMEscan)
Description: as §1

TRKC = molecular target: T22, TRKC (Homo sapiens, UniProt Q16288); settings: 35 at 1 µM; read-out: % inhibition
T22 construct: purchased Eurofins DiscoverX (KINOMEscan)
Description: as §1

CSNK1D = molecular target: T23, CSNK1D (Homo sapiens, UniProt P48730); settings: 35 at 1 µM; read-out: % inhibition
T23 construct: purchased Eurofins DiscoverX (KINOMEscan)
Description: as §1

ERK1 = molecular target: T24, ERK1 (Homo sapiens, UniProt P27361); settings: 35 at 1 µM; read-out: % inhibition
T24 construct: purchased Eurofins DiscoverX (KINOMEscan)
Description: as §1

MAP4K3 = molecular target: T25, MAP4K3 (Homo sapiens, UniProt Q8IVH8); settings: 35 at 1 µM; read-out: % inhibition
T25 construct: purchased Eurofins DiscoverX (KINOMEscan)
Description: as §1

QSK = molecular target: T26, QSK (Homo sapiens, UniProt Q9Y2K2); settings: 35 at 1 µM; read-out: % inhibition
T26 construct: purchased Eurofins DiscoverX (KINOMEscan)
Description: as §1

MAP3K15 = molecular target: T27, MAP3K15 (Homo sapiens, UniProt Q6ZN16); settings: 35 at 1 µM; read-out: % inhibition
T27 construct: purchased Eurofins DiscoverX (KINOMEscan)
Description: as §1

TAOK1 = molecular target: T28, TAOK1 (Homo sapiens, UniProt Q7L7X3); settings: 35 at 1 µM; read-out: % inhibition
T28 construct: purchased Eurofins DiscoverX (KINOMEscan)
Description: as §1

STK36 = molecular target: T29, STK36 (Homo sapiens, UniProt Q9NRP7); settings: 35 at 1 µM; read-out: % inhibition
T29 construct: purchased Eurofins DiscoverX (KINOMEscan)
Description: as §1

NEK7 = molecular target: T30, NEK7 (Homo sapiens, UniProt Q8TDX7); settings: 35 at 1 µM; read-out: % inhibition
T30 construct: purchased Eurofins DiscoverX (KINOMEscan)
Description: as §1

ICK = molecular target: T31, ICK (Homo sapiens, UniProt Q9UPZ9); settings: 35 at 1 µM; read-out: % inhibition
T31 construct: purchased Eurofins DiscoverX (KINOMEscan)
Description: as §1

KIT(V559D) = molecular target: T32, KIT(V559D) (Homo sapiens, UniProt P10721, V559D); settings: 35 at 1 µM; read-out: % inhibition
T32 construct: purchased Eurofins DiscoverX (KINOMEscan)
Description: as §1

TRKB = molecular target: T33, TRKB (Homo sapiens, UniProt Q16620); settings: 35 at 1 µM; read-out: % inhibition
T33 construct: purchased Eurofins DiscoverX (KINOMEscan)
Description: as §1

PFTK1 = molecular target: T34, PFTK1 (Homo sapiens, UniProt O94921); settings: 35 at 1 µM; read-out: % inhibition
T34 construct: purchased Eurofins DiscoverX (KINOMEscan)
T34 sequence (O94921 whole entry): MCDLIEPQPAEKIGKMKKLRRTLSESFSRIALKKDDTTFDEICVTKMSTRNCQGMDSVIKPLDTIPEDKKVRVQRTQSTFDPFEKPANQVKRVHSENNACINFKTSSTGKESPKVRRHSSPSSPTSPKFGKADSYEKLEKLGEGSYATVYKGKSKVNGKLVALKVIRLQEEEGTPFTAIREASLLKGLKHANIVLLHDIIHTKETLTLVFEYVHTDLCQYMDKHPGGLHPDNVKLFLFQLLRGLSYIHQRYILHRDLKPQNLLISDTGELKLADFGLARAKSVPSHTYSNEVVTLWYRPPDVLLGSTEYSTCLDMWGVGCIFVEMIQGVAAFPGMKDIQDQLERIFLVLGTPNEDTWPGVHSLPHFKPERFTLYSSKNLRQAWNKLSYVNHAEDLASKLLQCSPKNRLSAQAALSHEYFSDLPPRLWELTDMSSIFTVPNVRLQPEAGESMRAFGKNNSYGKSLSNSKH
Description: as §1

ALK = molecular target: T35, ALK (Homo sapiens, UniProt Q9UM73); settings: 35 at 1 µM; read-out: % inhibition
T35 construct: purchased Eurofins DiscoverX (KINOMEscan)
Description: as §1

PIP5K2C = molecular target: T36, PIP5K2C (Homo sapiens, UniProt Q8TBX8); settings: 35 at 1 µM; read-out: % inhibition
T36 construct: purchased Eurofins DiscoverX (KINOMEscan)
Description: as §1

TGFBR2 = molecular target: T37, TGFBR2 (Homo sapiens, UniProt P37173)
T37 construct: purchased Eurofins DiscoverX (KINOMEscan)
T37 sequence (P37173 23-567): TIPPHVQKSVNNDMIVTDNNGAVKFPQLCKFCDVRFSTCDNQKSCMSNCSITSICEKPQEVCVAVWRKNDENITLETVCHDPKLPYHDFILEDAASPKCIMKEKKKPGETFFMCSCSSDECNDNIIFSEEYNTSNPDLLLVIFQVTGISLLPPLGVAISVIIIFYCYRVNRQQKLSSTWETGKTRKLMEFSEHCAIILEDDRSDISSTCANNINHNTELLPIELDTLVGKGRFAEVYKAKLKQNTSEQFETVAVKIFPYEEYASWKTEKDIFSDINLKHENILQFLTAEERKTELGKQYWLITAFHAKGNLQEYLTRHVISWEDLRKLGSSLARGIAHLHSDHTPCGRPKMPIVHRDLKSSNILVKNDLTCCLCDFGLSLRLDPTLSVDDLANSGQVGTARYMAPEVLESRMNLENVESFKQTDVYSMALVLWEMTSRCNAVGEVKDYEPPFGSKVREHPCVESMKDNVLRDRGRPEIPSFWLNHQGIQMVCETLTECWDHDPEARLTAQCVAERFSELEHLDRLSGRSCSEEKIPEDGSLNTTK
Description: as §1

TYRO3 = molecular target: T38, TYRO3 (Homo sapiens, UniProt Q06418); settings: 35 at 1 µM; read-out: % inhibition
T38 construct: purchased Eurofins DiscoverX (KINOMEscan)
T38 sequence (Q06418 41-890): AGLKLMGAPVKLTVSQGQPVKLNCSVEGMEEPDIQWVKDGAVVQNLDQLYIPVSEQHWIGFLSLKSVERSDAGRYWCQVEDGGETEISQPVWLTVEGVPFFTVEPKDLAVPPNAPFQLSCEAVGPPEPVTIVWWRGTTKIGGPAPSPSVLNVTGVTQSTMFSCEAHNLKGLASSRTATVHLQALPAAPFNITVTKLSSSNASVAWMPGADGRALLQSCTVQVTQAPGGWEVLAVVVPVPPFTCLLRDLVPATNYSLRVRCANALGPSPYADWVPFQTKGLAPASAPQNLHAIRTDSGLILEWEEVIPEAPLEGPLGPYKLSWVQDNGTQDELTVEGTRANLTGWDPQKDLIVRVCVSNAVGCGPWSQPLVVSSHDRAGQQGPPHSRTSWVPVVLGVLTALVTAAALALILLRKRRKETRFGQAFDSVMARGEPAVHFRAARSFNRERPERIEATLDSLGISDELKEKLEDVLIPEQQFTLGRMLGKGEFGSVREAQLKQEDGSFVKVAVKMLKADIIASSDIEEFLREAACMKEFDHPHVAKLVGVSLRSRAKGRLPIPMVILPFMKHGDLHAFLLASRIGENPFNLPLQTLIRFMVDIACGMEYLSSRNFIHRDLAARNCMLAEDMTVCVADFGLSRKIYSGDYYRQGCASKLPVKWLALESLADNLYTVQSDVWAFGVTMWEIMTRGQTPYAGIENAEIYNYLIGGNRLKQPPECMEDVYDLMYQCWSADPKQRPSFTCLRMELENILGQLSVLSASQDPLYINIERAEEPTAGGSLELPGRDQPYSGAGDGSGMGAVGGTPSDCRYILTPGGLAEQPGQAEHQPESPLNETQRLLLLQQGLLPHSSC
Description: as §1

FRK = molecular target: T39, FRK (Homo sapiens, UniProt P42685); settings: 35 at 1 µM; read-out: % inhibition
T39 construct: purchased Eurofins DiscoverX (KINOMEscan)
Description: as §1

FGFR1 = molecular target: T40, FGFR1 (Homo sapiens, UniProt P11362); settings: 35 at 1 µM; read-out: % inhibition
T40 construct: purchased Eurofins DiscoverX (KINOMEscan)
Description: as §1

DAPK1 = molecular target: T41, DAPK1 (Homo sapiens, UniProt P53355); settings: 35 at 1 µM; read-out: % inhibition
T41 construct: purchased Eurofins DiscoverX (KINOMEscan)
T41 sequence (P53355 whole entry): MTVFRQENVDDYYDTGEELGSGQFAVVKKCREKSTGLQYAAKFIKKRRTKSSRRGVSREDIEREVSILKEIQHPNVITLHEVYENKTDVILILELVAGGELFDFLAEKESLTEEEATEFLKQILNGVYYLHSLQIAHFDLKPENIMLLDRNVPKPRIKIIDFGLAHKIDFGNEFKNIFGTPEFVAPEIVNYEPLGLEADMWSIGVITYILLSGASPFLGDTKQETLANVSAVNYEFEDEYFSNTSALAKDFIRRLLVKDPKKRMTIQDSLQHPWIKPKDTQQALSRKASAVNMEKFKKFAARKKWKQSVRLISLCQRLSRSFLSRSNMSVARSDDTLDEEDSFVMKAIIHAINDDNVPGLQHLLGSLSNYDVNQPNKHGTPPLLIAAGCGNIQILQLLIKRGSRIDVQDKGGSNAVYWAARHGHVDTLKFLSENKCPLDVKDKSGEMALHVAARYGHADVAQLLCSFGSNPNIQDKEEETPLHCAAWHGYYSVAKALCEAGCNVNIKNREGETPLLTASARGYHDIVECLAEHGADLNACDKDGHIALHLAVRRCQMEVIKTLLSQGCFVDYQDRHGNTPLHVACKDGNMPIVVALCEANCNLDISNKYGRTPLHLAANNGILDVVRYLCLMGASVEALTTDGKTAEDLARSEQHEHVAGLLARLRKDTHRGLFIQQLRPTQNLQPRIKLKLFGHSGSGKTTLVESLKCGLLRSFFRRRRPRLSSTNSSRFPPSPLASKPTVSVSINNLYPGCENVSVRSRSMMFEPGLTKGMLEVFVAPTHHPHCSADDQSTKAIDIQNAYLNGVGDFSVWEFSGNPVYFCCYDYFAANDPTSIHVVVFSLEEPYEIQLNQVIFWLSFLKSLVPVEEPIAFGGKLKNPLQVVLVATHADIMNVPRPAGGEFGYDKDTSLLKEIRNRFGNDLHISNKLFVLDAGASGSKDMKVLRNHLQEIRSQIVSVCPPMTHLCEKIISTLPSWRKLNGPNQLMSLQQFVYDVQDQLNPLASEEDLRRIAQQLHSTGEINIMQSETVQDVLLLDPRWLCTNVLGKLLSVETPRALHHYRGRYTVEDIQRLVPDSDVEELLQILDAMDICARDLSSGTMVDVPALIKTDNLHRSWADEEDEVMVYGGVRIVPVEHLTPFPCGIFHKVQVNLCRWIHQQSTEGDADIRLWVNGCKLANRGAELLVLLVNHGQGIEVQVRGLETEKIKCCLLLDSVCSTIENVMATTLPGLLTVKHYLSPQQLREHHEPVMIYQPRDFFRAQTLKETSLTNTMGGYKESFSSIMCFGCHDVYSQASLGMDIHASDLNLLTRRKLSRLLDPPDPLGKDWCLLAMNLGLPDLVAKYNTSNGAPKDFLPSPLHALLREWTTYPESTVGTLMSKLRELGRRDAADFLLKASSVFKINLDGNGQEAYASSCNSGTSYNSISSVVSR
Description: as §1

NEK1 = molecular target: T42, NEK1 (Homo sapiens, UniProt Q96PY6); settings: 35 at 1 µM; read-out: % inhibition
T42 construct: purchased Eurofins DiscoverX (KINOMEscan)
Description: as §1

NEK2 = molecular target: T43, NEK2 (Homo sapiens, UniProt P51955); settings: 35 at 1 µM; read-out: % inhibition
T43 construct: purchased Eurofins DiscoverX (KINOMEscan)
T43 sequence (P51955 whole entry): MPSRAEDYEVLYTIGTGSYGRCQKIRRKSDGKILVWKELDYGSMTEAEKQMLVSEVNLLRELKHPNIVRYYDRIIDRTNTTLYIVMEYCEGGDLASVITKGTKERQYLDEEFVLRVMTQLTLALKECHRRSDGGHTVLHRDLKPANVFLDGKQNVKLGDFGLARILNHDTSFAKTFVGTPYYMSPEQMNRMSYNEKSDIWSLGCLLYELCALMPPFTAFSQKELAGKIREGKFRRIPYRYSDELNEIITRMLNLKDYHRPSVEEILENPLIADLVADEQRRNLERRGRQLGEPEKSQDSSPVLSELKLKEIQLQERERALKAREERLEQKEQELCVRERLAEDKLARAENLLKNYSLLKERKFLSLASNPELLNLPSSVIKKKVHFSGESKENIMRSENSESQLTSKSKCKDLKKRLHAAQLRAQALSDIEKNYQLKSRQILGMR
Description: as §1

IGF1R = molecular target: T44, IGF1R (Homo sapiens, UniProt P08069); settings: 35 at 1 µM; read-out: % inhibition
T44 construct: purchased Eurofins DiscoverX (KINOMEscan)
Description: as §1

**Q.** Which results are given for `Brc1ccc2nccc(Nc3ccc4cn[nH]c4c3)c2c1` [Compound 35, 6-Bromo-N-(1H-indazol-6-yl)quinolin-4-amine]?
**A.** activity at 1 µM (ANKK1): 100%; activity at 1 µM (ERBB4): 100%; activity at 1 µM (TAK1): 100%; activity at 1 µM (PCTK3): 100%; activity at 1 µM (NDR2): 89%; activity at 1 µM (PKAC-beta): 100%; activity at 1 µM (PRKCQ): 88%; activity at 1 µM (PFTAIRE2): 100%; activity at 1 µM (EPHA7): 100%; activity at 1 µM (MST3): 100%; activity at 1 µM (MEK6): 100%; activity at 1 µM (ALK(C1156Y)): 64%; activity at 1 µM (PIK3CD): 100%; activity at 1 µM (FLT3-autoinhibited): 100%; activity at 1 µM (TRPM6): 100%; activity at 1 µM (TLK2): 100%; activity at 1 µM (HPK1): 100%; activity at 1 µM (DDR2): 100%; activity at 1 µM (YANK1): 100%; activity at 1 µM (SNRK): 100%; activity at 1 µM (EPHA6): 100%; activity at 1 µM (TRKC): 82%; activity at 1 µM (CSNK1D): 94%; activity at 1 µM (ERK1): 100%; activity at 1 µM (MAP4K3): 100%; activity at 1 µM (QSK): 100%; activity at 1 µM (MAP3K15): 98%; activity at 1 µM (TAOK1): 95%; activity at 1 µM (STK36): 100%; activity at 1 µM (NEK7): 92%; activity at 1 µM (ICK): 100%; activity at 1 µM (KIT(V559D)): 100%; activity at 1 µM (TRKB): 85%; activity at 1 µM (PFTK1): 69%; activity at 1 µM (ALK): 100%; activity at 1 µM (PIP5K2C): 95%; activity at 1 µM (TGFBR2; 35 at 1 µM, read-out: % inhibition): 18%; inhibition at 1 µM (TGFBR2; KinomeScan, screened at 1 μM, read-out: kinases inhibited at 1 μM: TGFBR2): 82%; activity at 1 µM (TYRO3): 99%; activity at 1 µM (FRK): 100%; activity at 1 µM (FGFR1): 100%; activity at 1 µM (DAPK1): 100%; activity at 1 µM (NEK1): 100%; activity at 1 µM (NEK2): 86%; activity at 1 µM (IGF1R): 100%

Source: publication PMC6891286, “Towards the Development of an In vivo Chemical Probe for Cyclin G Associated Kinase (GAK)” (Molecules, 2019)
